Results reported in patent US5849782A, “Methods of inhibiting neurodegenerative diseases” (The General Hospital Corporation, priority 1996, dated 1998).

What was measured:
[1] = 3-NP-induced neurotoxicity in vitro; Riepe et al. 1994; cited from earlier work
Male Sprague-Dawley rats = assay: Spontaneous striatal electrophysiological activity; conditions: MK-801 4 mg/kg after 7-NI; urethane anesthetized rats
Protocol: Electrophysiology. Four male Sprague-Dawley rats weighing 300 to 400 g were used for electrophysiological studies. Animals were anesthetized with urethane 1.5 g/kg i.p. and placed in a stereotaxic apparatus with their body temperatures maintained at 37° C. by a feedback heating pad. A 0.5×0.5 cm craniotomy was made and recording electrodes were placed in the anterior striatum using stereotaxic coordinates and aural monitoring. Following electrode placement the craniotomy was covered with 4% agar in saline and 30 min were allowed for stabilization before recordings were made. The spontaneous activity of multiple units were recorded extracellularly in the striatum, 3-4 mm anterior to the bregma and 3-4 mm lateral to the midline at a depth of 2.5-4.0 mm using commercially available tungsten microelectrodes (4 M.OMEGA. at 1 kHz, F. Haer, Inc.). […] Data acquisition and analysis of mean firing rate was performed using Discovery.COPYRGT., Experimenters WorkBench.COPYRGT. and Personal Scientific Workstation.COPYRGT. software (DataWave Technologies, Longmont, Colo.). We investigated the electrophysiological effects of the NMDA antagonist MK-801 and the NOS inhibitor 7-NI. […] Finally, spontaneous activity was recorded after the NMDA channel mediated activity was blocked by injection of MK-801 (4 mg/kg).

dopamine transporter = dopamine transporter (Mus musculus, UniProt Q61327); conditions: read-out: concentration giving complete inhibition of [3H]dopamine uptake
Male Swiss-Webster mice [2] = assay: MPTP-induced neurotoxicity in mice: striatal dopamine, DOPAC, HVA; type: in vivo, mouse; conditions: at 1 week
Protocol: Methods. Male Swiss-Webster mice (30-35 g:Taconic Farms, Germantown, N.Y., U.S.A.) were treated with either normal saline or MPTP hydrochloride (Research Biochemicals, Natick, Mass., U.S.A.). MPTP was administered in 0.1 ml of water at a dose of 10 mg/kg i.p. at 2-h intervals for six doses or 20 mg/kg i.p. at 2-h intervals for four doses. 7-NI (Cookson Chemical Ltd., Southhampton, U.K.) was dissolved in peanut oil (Sigma, St. Louis, Mo., U.S.A.) at a concentration of 5 mg/ml. Mice received doses of 25 or 50 mg/kg per subcutaneous injection. MPTP-treated animals were treated with peanut oil or 7-NI 12 h before the first, at every MPTP injection, and every 8 h for 48 h after MPTP injections. Eleven to 12 animals were used in each group. Animals were killed at 1 week. The two striata were rapidly dissected and placed in chilled 0.1M perchloric acid. Tissue was subsequently sonicated, and aliquots were taken for protein quantification using a fluorometric assay (Beal et al., 1990) J. Neurochem. 55:1327-1339).
(§1) Dopamine, 3,4-dihydroxyphenlyacetic acid (DOPAC), homovanillic acid (HVA), p-tyrosine, and 3-nitrotyrosine were quantified by HPLC with 16-electrode electrochemical detection (Beal et al. (1990) supra) and are expressed as ng/mg protein (mean±SEM) (FIG. 1). 3-Nitrotyrosine data are expressed as ratios of 3-nitrotyrosine to p-tyrosine to normalize for differing brain concentrations of tyrosine. The statistical significance of differences was determined via one-way ANOVA followed by Fisher PLSD post hoc test to compare group means. All animal use procedures were in strict accordance with the NIH Guide for the Care and Use of Laboratory Animals and were approved by the local Animal Care Committee.

Male Swiss-Webster mice [3] = assay: 3-nitrotyrosine to tyrosine ratio in mouse striatum after MPTP; type: in vivo; conditions: MPTP 20 mg/kg x4
Protocol: as §1
Role of Peroxynitrite in MPTP. To determine whether peroxynitrite plays a role in MPTP neurotoxicity, we therefore measured the ratio of 3-nitrotyrosine to tyrosine in mouse striatum following administration of MPTP.

[4] = MPTP 10 mg/kg x6 at 2-h intervals

Sequence of dopamine transporter (Q61327 whole entry): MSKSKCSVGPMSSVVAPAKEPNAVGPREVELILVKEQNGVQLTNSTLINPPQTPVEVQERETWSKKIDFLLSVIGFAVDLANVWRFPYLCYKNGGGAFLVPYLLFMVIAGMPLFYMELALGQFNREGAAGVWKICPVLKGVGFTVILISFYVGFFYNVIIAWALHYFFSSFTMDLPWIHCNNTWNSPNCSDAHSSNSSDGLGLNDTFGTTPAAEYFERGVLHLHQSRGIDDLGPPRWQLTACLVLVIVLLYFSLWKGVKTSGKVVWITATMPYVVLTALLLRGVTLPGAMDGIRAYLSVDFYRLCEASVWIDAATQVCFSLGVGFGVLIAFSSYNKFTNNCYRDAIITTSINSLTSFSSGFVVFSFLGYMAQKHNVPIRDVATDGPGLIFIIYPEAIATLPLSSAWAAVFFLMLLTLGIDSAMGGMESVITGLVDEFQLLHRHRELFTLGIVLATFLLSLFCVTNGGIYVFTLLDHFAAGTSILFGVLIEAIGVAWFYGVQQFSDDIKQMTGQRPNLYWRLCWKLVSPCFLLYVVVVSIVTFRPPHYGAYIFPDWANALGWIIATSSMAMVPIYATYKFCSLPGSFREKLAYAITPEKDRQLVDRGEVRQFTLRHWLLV

For C[C@]12N[C@H](Cc3ccccc31)c1ccccc12 [MK-801, reference compound], the “effect on ATP depletions” value [1] is listed as “had no effect” and the “decrease in mean firing rate in striatum” value (Male Sprague-Dawley rats) is listed as “rapid and profound”.
OC1(c2ccc(Cl)cc2)c2ccccc2C2=NCCN21 (centres unmarked) [mazindol, reference compound] gave an IC100 (dopamine transporter) of 1 µM.
In the case of CN1CC=C(c2ccccc2)CC1 [MPTP, 1-methyl-4-phenyl1,2,3,6-tetrahydropyridine], the “depletion in striatal DOPAC levels” value (Male Swiss-Webster mice [2]; [4]) was 27%, the “depletion in striatal HVA levels” value (Male Swiss-Webster mice [2]; [4]) was 35% and the “depletion in striatal dopamine levels” value (Male Swiss-Webster mice [2]; [4]) was 38%. The “depletion in striatal dopamine levels” value (Male Swiss-Webster mice [2]; MPTP 20 mg/kg x4) was 64% and the “increase of 3-nitrotyrosine to tyrosine ratio” value (Male Swiss-Webster mice [3]) was 31%.
